Legend:
MCF7 = assay: Growth inhibition of MCF7 cells at 100 uM after 48 hrs; format: functional, Homo sapiens; parameters: scale not given: the % may be the effect or the level left
SF-268 = assay: Growth inhibition of SF268 cells at 100 uM after 48 hrs; format: functional, Homo sapiens; parameters: scale not given: the % may be the effect or the level left
[1] = Anticancer activity against leukemia cells; format: functional; details: Homo sapiens, Leukemia cell
[2] = Anticancer activity against nonsmall lung cancer cells; format: functional; details: Homo sapiens, Cancer cell lines
[3] = Anticancer activity against colon cancer cells; format: functional; details: Homo sapiens, Cancer cell lines
[4] = Anticancer activity against CNS cancer cells; format: functional; details: Homo sapiens, Cancer cell lines
[5] = Anticancer activity against melanoma cells; format: functional; details: Homo sapiens, Melanoma cell
[6] = Anticancer activity against ovarian cancer cells; format: functional; details: Homo sapiens, Cancer cell lines
[7] = Anticancer activity against renal cancer cells; format: functional; details: Homo sapiens, Cancer cell lines
[8] = Anticancer activity against prostate cancer cells; format: functional; details: Homo sapiens, Cancer cell lines
[9] = Anticancer activity against breast cancer cells; format: functional; details: Homo sapiens, Cancer cell lines
[10] = Anticancer activity against human NCI60 cells; format: functional; details: for CC50: read-out: LC50 (the source's name)
NCI-H460 = assay: Growth inhibition of NCI-H460 cells at 100 uM after 48 hrs; format: functional, Homo sapiens; parameters: scale not given: the % may be the effect or the level left
CCRF-CEM = assay: Anticancer activity against CCRF-CEM cells; format: functional; details: Homo sapiens
K562 = assay: Anticancer activity against K562 cells; format: functional; details: Homo sapiens
MOLT-4 = assay: Anticancer activity against MOLT4 cells; format: functional; details: Homo sapiens
SR = assay: Anticancer activity against SR cells; format: functional; details: Homo sapiens
HL-60 = assay: Anticancer activity against HL60 cells; format: functional; details: Homo sapiens

Row | SMILES | Activity (MCF7) [%] | Activity (SF-268) [%] | GI50 [1] [µM] | GI50 [2] [µM] | GI50 [3] [µM] | GI50 [4] [µM] | GI50 [5] [µM] | GI50 [6] [µM] | GI50 [7] [µM] | GI50 [8] [µM] | GI50 [9] [µM] | GI50 [10] [µM] | TGI [10] [µM] | CC50 [10] [µM] | Activity (NCI-H460) [%] | GI50 (CCRF-CEM) [µM] | GI50 (K562) [µM] | GI50 (MOLT-4) [µM] | GI50 (SR) [µM] | GI50 (HL-60) [µM]
1 | O=C(c1ccco1)c1c(C(F)(F)F)[n+]([O-])c2ccc(F)cc2[n+]1[O-] | 72 | 82 | 0.3 | 3.13 | 1.06 | 2.35 | 1.56 | 2.03 | 2.41 | 2.6 | 1.33 | 1.62 | 4.27 | 15.8 |  |  |  |  |  | 
2 | COc1ccc2c(c1)[n+]([O-])c(C(=O)c1ccc3ccccc3c1)c(C(F)(F)F)[n+]2[O-] | <32 | <32 |  | 0.8 |  |  |  |  |  |  |  |  |  |  | <32 |  |  |  |  | 
3 | O=C(c1cccs1)c1c(C(F)(F)F)[n+]([O-])c2cc(Cl)c(Cl)cc2[n+]1[O-] |  |  | 0.02 | 2.04 | 0.59 | 0.67 | 0.94 | 1.16 | 1.6 | 0.79 | 0.79 | 0.74 | 3.02 | 11 |  | < 0.01 | < 0.01 | < 0.01 | < 0.01 | 
4 | O=C(c1cccs1)c1c(C(F)(F)F)[n+]([O-])c2cc(C(F)(F)F)ccc2[n+]1[O-] |  |  | 0.03 | 0.3 | 0.15 | 0.18 | 0.33 | 0.2 | 0.24 | 0.15 | 0.18 | 0.18 | 0.47 | 1.48 |  | 0.07 |  | 0.02 | 0.02 | < 0.01
5 | O=C(c1cccs1)c1c(C(F)(F)F)[n+]([O-])c2ccccc2[n+]1[O-] |  |  | 13.9 | 0.35 | 0.83 | 1.45 | 1.39 | 0.75 | 0.48 | 0.4 | 0.85 | 0.98 | 3.89 | 11.2 |  |  |  |  |  | 
6 | O=C(c1ccco1)c1nc2cc(C(F)(F)F)ccc2nc1C(F)(F)F |  |  | 54 | 81.5 | 100 | 75.9 | 100 | 90.9 | 100 | 100 | 84 | 87.1 | 97.7 | > 100 |  |  |  |  |  | 
7 | Cc1ccc2c(c1)[n+]([O-])c(C(=O)c1cccs1)c(C(F)(F)F)[n+]2[O-] |  |  | 0.49 | 0.56 | 0.88 | 0.75 | 0.9 | 0.27 | 0.25 | 0.89 | 0.76 | 0.55 | 5.5 | 33.1 |  |  |  |  |  | 
8 | O=C(c1ccco1)c1c(C(F)(F)F)[n+]([O-])c2ccc(Cl)cc2[n+]1[O-] |  |  | 0.19 | 0.36 | 0.21 | 0.77 | 0.49 | 0.56 | 0.2 | 0.11 | 0.28 | 0.32 | 2.57 | 10 |  |  |  |  |  | 
9 | O=C(c1cccs1)c1c(C(F)(F)F)[n+]([O-])c2ccc(F)cc2[n+]1[O-] |  |  | 0.27 | 1.68 | 0.92 | 1.63 | 1.51 | 1.17 | 1.65 | 1.51 | 1.19 | 1.2 | 2.88 | 9.33 |  |  |  |  |  | 
10 | O=C(c1ccco1)c1c(C(F)(F)F)[n+]([O-])c2ccc(C(F)(F)F)cc2[n+]1[O-] |  |  | 0.21 | 0.76 | 0.57 | 0.91 | 1.11 | 0.72 | 0.43 | 0.42 | 0.57 | 0.6 | 1.48 | 5.01 |  |  |  |  |  | 
11 | Cc1cc2c(cc1C)[n+]([O-])c(C(F)(F)F)c(C(=O)c1cccs1)[n+]2[O-] |  |  | 2.71 | 2.81 | 5.31 | 3.05 | 3.99 | 2.34 | 4.62 | 3.89 | 3.08 | 3.47 | 17.4 | 61.7 |  |  |  |  |  | 
12 | O=C(c1cccs1)c1c(C(F)(F)F)[n+]([O-])c2cc(F)c(F)cc2[n+]1[O-] |  |  | 0.05 | 0.83 | 0.27 | 0.44 | 0.39 | 0.53 | 0.5 | 0.51 | 0.41 | 0.37 | 1.62 | 9.33 |  |  |  |  |  | 
13 | O=C(c1ccc2ccccc2c1)c1c(C(F)(F)F)[n+]([O-])c2cc(Cl)c(Cl)cc2[n+]1[O-] |  |  | 1.58 | 1.7 | 1.55 | 1.63 | 1.57 | 1.51 | 1.64 | 1.55 | 1.62 | 1.58 | 3.16 | 6.17 |  |  |  |  |  | 
14 | O=C(c1ccco1)c1nc2cc(C(F)(F)F)ccc2[n+]([O-])c1C(F)(F)F |  |  | 51.1 | 48.1 | 41.4 | 45.5 | 42.9 | 42.5 | 60.6 | 51.9 | 32 | 45.7 | 97.7 | > 100 |  |  |  |  |  | 
15 | O=C(c1ccc2ccccc2c1)c1c(C(F)(F)F)[n+]([O-])c2ccc(C(F)(F)F)cc2[n+]1[O-] |  |  | 0.26 | 1.42 | 0.66 | 0.95 | 0.97 | 0.47 | 0.58 | 0.57 | 0.99 | 0.72 | 1.91 | 5.5 |  |  |  |  |  | 
16 | O=C(c1ccco1)c1c(C(F)(F)F)[n+]([O-])c2cc(Cl)c(Cl)cc2[n+]1[O-] |  |  | 0.27 | 0.28 | 0.5 | 0.79 | 1.57 | 1.65 | 0.31 | 0.33 | 1.38 | 0.63 | 3.09 | 11 |  |  |  |  |  | 

Source: ChEMBL document CHEMBL1137558, “Synthesis and biological evaluation of new 2-arylcarbonyl-3-trifluoromethylquinoxaline 1,4-di-N-oxide derivatives and their reduced analogues” (2007)
